Source: patent US5134137A, “Cephalosporin antibiotics” (The Upjohn Company, priority 1990, dated 1992)
≈ marks a conversion by molar mass, not a printed value. Read-outs that look alike come from different tables or passages of the source.

Legend:
[1] = test system: Escherichia coli; assay: MIC, agar dilution, Escherichia coli; assay type: cell-based; conditions: Escherichia coli, read-out: MIC
Description: (§1) Stock solution of each test antibiotic compound were prepared to have a concentration of 2 mg. of the test compound per milliliter in sterile water of 0.1M ammonium acetate solution. The amount of each compound used was adjusted for base compound activity as calculated from the purity data for the selected batch of compound.
(§2) The dilution procedure described by Washington and Sutter [Manual of Clinical Microbiology, 3rd, Edit. (Lennett, E. H. et al, Eds.), pp. 453-458 (1980), American Society for Microbiology, Washington, D.C.] was modified so that serial concentrations of 128 to 0.0625 microgram/ml. in sterile water was obtained. Then 1.5 ml. aliquots of these test antibiotic dilution mixtures are added to 13.5 molten (50° C.) Mueller-Hinton agar. Each resulting mixture is poured into 15×100 mm, sterile Petri plates and allowed to dry at room temperature overnight.
(§3) Test bacterial cultures are maintained at -70° C. on glass beads. [See R. J. Yancey, Jr. et al, Amer. Jr. of Vet. Research, 48, No. 7, pp. 1050-1053, (1987)]. At least one bacteria-laden bead per culture is dropped into one ml. of brain heart infusion (BHI) broth for overnight culture at 37° C. in 5% V/V carbon dioxide in air atmosphere.
(§4) On the data of assay, 2 to 8 drops of the bacterial broth cultures are transferred to fresh BHI broth (1 ml.) and the mixture is incubated for 4 to 6 hours at 37° C. in a 5% V/V carbon dioxide in air atmosphere. The resulting cultures are then diluted to match a 0.5 MacFarland standard and further diluted 1:20 V/V with sterile saline solution.
(§5) A 0.001 ml. drop of the resulting mixture, containing approximately 10^3 to 10^4 colony forming units (CFU) of each test bacteria organism, is dispensed onto the surface of the test antibiotic compound test plates with a Steer's type replicator. The resulting innoculated plates are incubated 16 to 18 hours at 37° C. with a carbon dioxide atmosphere.
as §1, with “Stock solutions” for “Stock solution”
as §2, with “mm.” for “mm,”
as §2, with “for Microbiology.” for “for Microbiology,”, “15×100 mm.” for “15×100 mm,”
as §3, with “culture” for “cultures”
(§6) On the day of assay, 2 to 8 drops of the bacterial broth cultures are transferred to fresh BHI broth (1 ml.) and the mixture is incubated for 4 to 6 hours at 37° C. in a 5% V/V carbon dioxide in air atmosphere. […]

[2] = test system: Staphylococcus aureus; assay: MIC, agar dilution, Staphylococcus aureus; assay type: cell-based; conditions: Staphylococcus aureus, read-out: MIC
Description: as §1, §2, §3, §4, §5
as §1, with “Stock solutions” for “Stock solution”
as §2, with “mm.” for “mm,”
as §2, with “for Microbiology.” for “for Microbiology,”, “15×100 mm.” for “15×100 mm,”
as §3, with “culture” for “cultures”
as §6

[3] = test system: Streptococcus dysgalactiae; assay: MIC, agar dilution, Streptococcus dysgalactiae; assay type: cell-based; conditions: Streptococcus dysgalactiae; strain UC251; read-out: MIC
Description: as §1, §2, §3, §4, §5
as §1, with “Stock solutions” for “Stock solution”
as §2, with “mm.” for “mm,”
as §2, with “for Microbiology.” for “for Microbiology,”, “15×100 mm.” for “15×100 mm,”
as §3, with “culture” for “cultures”
as §6

[4] = test system: Corynebacterium pyogenes; assay: MIC, agar dilution, Corynebacterium pyogenes; assay type: cell-based; conditions: strain 213-2; read-out: MIC
Description: as §1, §2, §3, §4, §5
as §1, with “Stock solutions” for “Stock solution”
as §2, with “mm.” for “mm,”
as §2, with “for Microbiology.” for “for Microbiology,”, “15×100 mm.” for “15×100 mm,”
as §3, with “culture” for “cultures”
as §6

[5] = test system: Enterococcus faecium; assay: MIC, agar dilution, Enterococcus faecium; assay type: cell-based; conditions: Enterococcus faecium; strain UC241; read-out: MIC
Description: as §1, with “Stock solutions” for “Stock solution”
as §2, §3, §4, §5, §1
as §2, with “mm.” for “mm,”
as §2, with “for Microbiology.” for “for Microbiology,”, “15×100 mm.” for “15×100 mm,”
as §3, with “culture” for “cultures”
as §6

[6] = test system: Bordetella bronchiseptica; assay: MIC, agar dilution, Bordetella bronchiseptica; assay type: cell-based; conditions: Bordetella bronchiseptica; strain UC6313; read-out: MIC
Description: as §1, §2, §3, §4, §5
as §1, with “Stock solutions” for “Stock solution”
as §2, with “mm.” for “mm,”
as §2, with “for Microbiology.” for “for Microbiology,”, “15×100 mm.” for “15×100 mm,”
as §3, with “culture” for “cultures”
as §6

[7] = test system: Salmonella typhimurium; assay: MIC, agar dilution, Salmonella typhimurium; assay type: cell-based; conditions: Salmonella enterica, read-out: MIC
Description: as §1, §2, §3, §4, §5
as §1, with “Stock solutions” for “Stock solution”
as §2, with “mm.” for “mm,”
as §2, with “for Microbiology.” for “for Microbiology,”, “15×100 mm.” for “15×100 mm,”
as §3, with “culture” for “cultures”
as §6

[8] = test system: Streptococcus agalactiae; assay: MIC, agar dilution, Streptococcus agalactiae; assay type: cell-based; conditions: Streptococcus agalactiae, read-out: MIC
Description: as §1, §2, §3, §4, §5
as §1, with “Stock solutions” for “Stock solution”
as §2, with “mm.” for “mm,”
as §2, with “for Microbiology.” for “for Microbiology,”, “15×100 mm.” for “15×100 mm,”
as §3, with “culture” for “cultures”
as §6

[9] = test system: Pasteurella hemolytica; assay: MIC (minimum inhibitory concentration), agar dilution, Pasteurella hemolytica; assay type: cell-based; conditions: Pasteurella, read-out: MIC
Description: as §1, §2, §3, §4, §5
as §1, with “Stock solutions” for “Stock solution”
as §2, with “mm.” for “mm,”
as §2, with “for Microbiology.” for “for Microbiology,”, “15×100 mm.” for “15×100 mm,”
as §3, with “culture” for “cultures”
as §6

[10] = test system: Micrococcus luteus; assay: MIC, agar dilution, Micrococcus luteus; assay type: cell-based; conditions: Micrococcus luteus; strain UC130; read-out: MIC
Description: as §1, §2, §3, §4, §5
as §1, with “Stock solutions” for “Stock solution”
as §2, with “mm.” for “mm,”
as §2, with “for Microbiology.” for “for Microbiology,”, “15×100 mm.” for “15×100 mm,”
as §3, with “culture” for “cultures”
as §6

[11] = test system: Pasteurella multocida; assay: MIC, agar dilution, Pasteurella multocida; assay type: cell-based; conditions: Pasteurella multocida; strain UC9581; read-out: MIC
Description: as §1, §2, §3, §4, §5
as §1, with “Stock solutions” for “Stock solution”
as §2, with “mm.” for “mm,”
as §2, with “for Microbiology.” for “for Microbiology,”, “15×100 mm.” for “15×100 mm,”
as §3, with “culture” for “cultures”
as §6

[12] = test system: Pseudomonas aeruginosa; assay: MIC, agar dilution, Pseudomonas aeruginosa; assay type: cell-based; conditions: Pseudomonas aeruginosa, ATCC27853; strain ATCC 27853; read-out: MIC
Description: as §1, §2, §3, §4, §5
as §1, with “Stock solutions” for “Stock solution”
as §2, with “mm.” for “mm,”
as §2, with “for Microbiology.” for “for Microbiology,”, “15×100 mm.” for “15×100 mm,”
as §3, with “culture” for “cultures”
as §6

[13] = test system: Streptococcus uberis; assay: MIC, agar dilution, Streptococcus uberis; assay type: cell-based; conditions: Streptococcus uberis, read-out: MIC
Description: as §1, §2, §3, §4, §5
as §1, with “Stock solutions” for “Stock solution”
as §2, with “mm.” for “mm,”
as §2, with “for Microbiology.” for “for Microbiology,”, “15×100 mm.” for “15×100 mm,”
as §3, with “culture” for “cultures”
as §6

[14] = test system: Streptococcus suis; assay: MIC, agar dilution, Streptococcus suis; assay type: cell-based; conditions: Streptococcus suis; strain 650-2; read-out: MIC
Description: as §1, §2, §3, §4, §5
as §1, with “Stock solutions” for “Stock solution”
as §2, with “mm.” for “mm,”
as §2, with “for Microbiology.” for “for Microbiology,”, “15×100 mm.” for “15×100 mm,”
as §3, with “culture” for “cultures”
as §6

[15] = test system: Enterococcus faecalis; assay: MIC, agar dilution, Enterococcus faecalis; assay type: cell-based; conditions: Enterococcus faecalis; strain UC694; read-out: MIC
Description: as §1, with “Stock solutions” for “Stock solution”
as §2, §3, §4, §5, §1
as §2, with “mm.” for “mm,”
as §2, with “for Microbiology.” for “for Microbiology,”, “15×100 mm.” for “15×100 mm,”
as §3, with “culture” for “cultures”
as §6

[16] = test system: Salmonella choleraesuis; assay: MIC, agar dilution, Salmonella choleraesuis; assay type: cell-based; conditions: Salmonella enterica, read-out: MIC
Description: as §1, §2, §3, §4, §5
as §1, with “Stock solutions” for “Stock solution”
as §2, with “mm.” for “mm,”
as §2, with “for Microbiology.” for “for Microbiology,”, “15×100 mm.” for “15×100 mm,”
as §3, with “culture” for “cultures”
as §6

[17] = test system: Streptococcus bovis; assay: MIC, agar dilution, Streptococcus bovis; assay type: cell-based; conditions: Streptococcus equinus; strain UC6281; read-out: MIC
Description: as §1, §2, §3, §4, §5
as §1, with “Stock solutions” for “Stock solution”
as §2, with “mm.” for “mm,”
as §2, with “for Microbiology.” for “for Microbiology,”, “15×100 mm.” for “15×100 mm,”
as §3, with “culture” for “cultures”
as §6

[18] = Serum half life / duration of antibiotic action; conditions: inferred from results against Salmonella typhimurium
[19] = TYPHIMURIUM / UC6162, strain UC6162
[20] = TYPHIMURIUM / UC6164, strain UC6164
[21] = CHOLERAESUIS / UC6073, strain UC6073
[22] = CHOLERAESUIS / UC6077, strain UC6077

| SMILES | MIC ([1]; strain UC3784) [µg/mL] | MIC ([1]; strain UC6720) [µg/mL] | MIC ([1]; strain UC9670) [µg/mL] | MIC ([2]; strain UC6093) [µg/mL] | MIC ([2]; strain UC6097) [µg/mL] | MIC ([2]; strain UC9203) [µg/mL] | MIC [3] [µg/mL] | MIC [4] [µg/mL] | MIC [5] [µg/mL] | MIC [6] [µg/mL] | MIC [7, 19] [µg/mL] | MIC [7, 20] [µg/mL] | MIC ([8]; strain UC3947) [µg/mL] | MIC ([8]; strain UC6892) [µg/mL] | MIC ([9]; strain UC6531) [µg/mL] | MIC ([9]; strain UC6532) [µg/mL] | MIC ([9]; strain UC9582) [µg/mL] | MIC [10] [µg/mL] | MIC [11] [µg/mL] | MIC [12] [µg/mL] | other results |
| --- | --- | --- | --- | --- | --- | --- | --- | --- | --- | --- | --- | --- | --- | --- | --- | --- | --- | --- | --- | --- | --- |
| CO/N=C(\C(=O)N[C@@H]1C(=O)N2C(C(=O)O)=C(CSCC(N)=O)CS[C@H]12)c1csc(N)n1 [Example 7, 7-[2-(2-amino-1,3-thiazol-4-yl)-2-(methoxyimino)acetamido]-3-(aminocarbonylmethylthiomethyl)-3-cephem-4-carboxylic acid] | 1 (≈ 2.06 µM) | 1 (≈ 2.06 µM) | 1 (≈ 2.06 µM) | 4 (≈ 8.22 µM) | 4 (≈ 8.22 µM) | 4 (≈ 8.22 µM) | ≤ 0.06 | 16 (≈ 32.9 µM) | > 32 | > 32 | 1 (≈ 2.06 µM) | 1 (≈ 2.06 µM) | ≤ 0.06 | ≤ 0.06 | ≤ 0.06 | ≤ 0.06 | ≤ 0.06 | 0.25 (≈ 0.514 µM) | ≤ 0.06 | > 32 | MIC ([13]; strain UC3946): 0.13 µg/mL (≈ 0.267 µM); MIC ([13]; strain UC6159): 32 µg/mL (≈ 65.8 µM); MIC [14]: 0.13 µg/mL (≈ 0.267 µM); MIC [15]: > 32 µg/mL; MIC [16, 21]: 1 µg/mL (≈ 2.06 µM); MIC [16, 22]: 2 µg/mL (≈ 4.11 µM); MIC [17]: 0.13 µg/mL (≈ 0.267 µM); serum half life [18]: longer serum half life |
| CO/N=C(\C(=O)N[C@@H]1C(=O)N2C(C(=O)O)=C(CSSc3ccccc3)CS[C@H]12)c1csc(N)n1 [Example 15] | 8 (≈ 14.9 µM) | 8 (≈ 14.9 µM) | 8 (≈ 14.9 µM) | 2 (≈ 3.72 µM) | 2 (≈ 3.72 µM) | 2 (≈ 3.72 µM) | ≤ 0.06 | 4 (≈ 7.44 µM) | > 32 | > 32 | 16 (≈ 29.8 µM) | 8 (≈ 14.9 µM) | ≤ 0.06 | ≤ 0.06 | 0.13 (≈ 0.242 µM) | 0.25 (≈ 0.465 µM) | 0.25 (≈ 0.465 µM) | ≤ 0.06 | ≤ 0.06 | > 32 | MIC ([13]; strain UC3946): ≤ 0.06 µg/mL; MIC ([13]; strain UC6159): 16 µg/mL (≈ 29.8 µM); MIC [14]: ≤ 0.06 µg/mL; MIC [15]: > 32 µg/mL; MIC [16, 21]: 32 µg/mL (≈ 59.5 µM); MIC [16, 22]: 32 µg/mL (≈ 59.5 µM); MIC [17]: ≤ 0.06 µg/mL |
